Data: patent US10227361B2, “Fused imidazobenzothiazole compounds” (TORRENT PHARMACEUTICALS LIMITED, priority 2014, dated 2019)

Molecular target: T1, purified recombinant human p38 alpha MAPK (Homo sapiens, UniProt Q16539)
T1 construct: purchased Millipore, USA
Assay: Inhibition of p38 alpha MAPK activity: TR-FRET kinase assay
Format: biochemical
Details: read-out: P38α Inhibition; for inhibition at 1 µM: Concentration 1 μM
Experimental: Inhibition of p38 Alpha MAPK Activity: Time-Resolved Fluorescence Resonance Energy Transfer Kinase Standard Assay (TR-FRET Assay)
Compounds of present invention at various concentrations were premixed with DMSO. The experiment was initiated by mixing 0.5% 1.0% DMSO as vehicle/compounds with purified recombinant human p38 alpha MAPK (Millipore, USA) in the wells and 15 min incubation at RT. Thereafter, 30 nM of Biotinylated GST-ATF2 (Activation Transcription Factor2) and 100 μM of ATP were added in to the wells containing reaction mixture, followed by reincubation for 60 minutes at RT. Reaction was terminated by addition of 10 mM of EDTA and detection reagent containing anti-phosphothreonine ATF2 antibody (Perkin Elmer, USA) labelled with europium chelate and APC (Allophycocyanin) labeled streptavidin, into the reaction mixture which was further incubated for 60 minutes at room temperature. The degree of phosphorylation of the substrate (GST-ATF2) was measured using Envision multimode reader (Perkin Elmer). Percentage inhibition of p38 kinase activity was calculated by determining ratio of specific europium 665 nm energy transfer signal to reference 615 nm signal.

T1 sequence (Q16539 whole entry): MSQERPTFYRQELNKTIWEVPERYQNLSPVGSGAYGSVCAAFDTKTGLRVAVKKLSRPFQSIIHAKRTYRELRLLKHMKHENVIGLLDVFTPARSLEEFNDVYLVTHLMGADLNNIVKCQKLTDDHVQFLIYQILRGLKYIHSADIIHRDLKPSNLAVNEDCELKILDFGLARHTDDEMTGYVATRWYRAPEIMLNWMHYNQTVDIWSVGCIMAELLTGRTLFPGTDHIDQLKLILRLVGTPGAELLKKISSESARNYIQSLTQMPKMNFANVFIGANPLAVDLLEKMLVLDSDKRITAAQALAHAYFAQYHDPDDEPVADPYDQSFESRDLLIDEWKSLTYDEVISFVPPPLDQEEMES

| SMILES | inhibition at 0.1 µM (Concentration 100 nM) | inhibition at 1 µM |
| --- | --- | --- |
| CCOC(=O)c1cnc2sc3cc(Oc4ccc(NC(=O)Nc5cc(C(C)(C)C)nn5-c5ccc(O)c(Cl)c5)cc4)ccc3n12 [Compound 26, ethyl 7-[4-({[3-tert-butyl-1-(3-chloro-4-hydroxyphenyl)-1H-pyrazol-5-yl]carbamoyl}amino)phenoxy]imidazo[2,1-b][1,3]benzothiazole-3-carboxylate] | – | ≤ 20% |
| CC(C)(C)c1cc(NC(=O)Nc2ccc(Oc3ccc4c(c3)sc3ncc(CO)n34)cc2)n(-c2ccc(O)c(Cl)c2)n1 [Compound 27, 1-[3-tert-butyl-1-(3-chloro-4-hydroxyphenyl)-1H-pyrazol-5-yl]-3-(4-{[3-(hydroxymethyl)imidazo[2,1-b][1,3]benzothiazol-7-yl]oxy}phenyl)urea] | – | 60 to 80% |
| CC(C)(C)c1cc(NC(=O)NCc2ccccc2Oc2ccc3c(c2)sc2ncc(CN4CCSCC4)n23)n(-c2ccc(O)c(Cl)c2)n1 [Compound 29, 1-[3-tert-butyl-1-(3-chloro-4-hydroxyphenyl)-1H-pyrazol-5-yl]-3-(2-{[3-(thiomorpholin-4-ylmethyl)imidazo[2,1-b][1,3]benzothiazol-7-yl]oxy}benzyl)urea] | – | 80 to 100% |
| CC(C)(C)c1cc(NC(=O)NCc2ccccc2Oc2ccc3c(c2)sc2ncc(CN4CCOCC4)n23)n(-c2ccc(O)c(Cl)c2)n1 [Compound 35, 1-[3-tert-butyl-1-(3-chloro-4-hydroxyphenyl)-1H-pyrazol-5-yl]-3-(2-{[3-(morpholin-4-ylmethyl)imidazo[2,1-b][1,3]benzothiazol-7-yl]oxy}benzyl)urea] | – | 80 to 100% |
| O=C(Nc1ccc(Oc2ccc3c(c2)sc2ncc(C(=O)O)n23)cc1)NC(CO)c1ccccc1 (stereo not drawn) [Compound 41, 7-(4-{[(2-hydroxy-1-phenylethyl)carbamoyl]amino}phenoxy)imidazo[2,1-b][1,3]benzothiazole-3-carboxylic acid] | – | ≤ 20% |
| CCOC(=O)c1cnc2sc3cc(Oc4ccc(NC(=O)Nc5c(-c6ccccc6)noc5C)cc4)ccc3n12 [Compound 43, ethyl 7-(4-{[(5-methyl-3-phenyl-1,2-oxazol-4-yl)carbamoyl]amino}phenoxy)imidazo[2,1-b][1,3]benzothiazole-3-carboxylate] | – | ≤ 20% |
| CCOC(=O)c1cnc2sc3cc(Oc4ccccc4CNC(=O)NC4CCCCC4)ccc3n12 [Compound 46, ethyl 7-(2-{[(cyclohexylcarbamoyl)amino]methyl}phenoxy)imidazo[2,1-b][1,3]benzothiazole-3-carboxylate] | – | ≤ 20% |
| CCOC(=O)c1cnc2sc3cc(Oc4ccc(NC(=O)Nc5ccc(Cl)c(C(F)(F)F)c5)cc4)ccc3n12 [Compound 47, ethyl 7-[4-({[4-chloro-3-(trifluoromethyl)phenyl]carbamoyl}amino)phenoxy]imidazo[2,1-b][1,3]benzothiazole-3-carboxylate] | – | ≤ 20% |
| CC(C)(C)c1cc(NC(=O)NCc2ccccc2Oc2ccc3c(c2)sc2ncc(CN4CCC(O)CC4)n23)n(-c2ccc(O)c(Cl)c2)n1 [Compound 65, 1-[3-tert-butyl-1-(3-chloro-4-hydroxyphenyl)-1H-pyrazol-5-yl]-3-[2-({3-[(4-hydroxypiperidin-1-yl)methyl]imidazo[2,1-b][1,3]benzothiazol-7-yl}oxy)benzyl]urea] | – | 60 to 80% |
| COc1c(NC(=O)NCc2ccccc2Oc2ccc3c(c2)sc2ncc(CN4CCOCC4)n23)cc(C(C)(C)C)cc1NS(C)(=O)=O [Compound 74, N-(5-tert-butyl-2-methoxy-3-{[(2-{[3-(morpholin-4-ylmethyl)imidazo[2,1-b][1,3]benzothiazol-7-yl]oxy}benzyl)carbamoyl]amino}phenyl) methanesulfonamide] | – | 60 to 80% |

Continued, values first:

| inhibition at 0.1 µM (Concentration 100 nM) | inhibition at 1 µM | SMILES |
| --- | --- | --- |
| 60 to 80% | – | CCOC(=O)c1cnc2sc3cc(Oc4ccccc4CNC(=O)Nc4cc(C(C)(C)C)nn4-c4ccc(O)c(Cl)c4)ccc3n12 [Compound 25, ethyl 7-{2-[({[3-tert-butyl-1-(3-chloro-4-hydroxyphenyl)-1H-pyrazol-5-yl]carbamoyl}amino)methyl]phenoxy}imidazo[2,1-b][1,3]benzothiazole-3-carboxylate] |
| – | 80 to 100% | CN(CCO)C(=O)c1cnc2sc3cc(Oc4ccccc4CNC(=O)Nc4cc(C(C)(C)C)nn4-c4ccc(O)c(Cl)c4)ccc3n12 [Compound 28, 7-{2-[({[3-tert-butyl-1-(3-chloro-4-hydroxyphenyl)-1H-pyrazol-5-yl]carbamoyl}amino)methyl]phenoxy}-N-(2-hydroxyethyl)-N-methylimidazo[2,1-b][1,3]benzothiazole-3-carboxamide] |
| – | 80 to 100% | CCOC(=O)CSCc1cn2c(n1)sc1cc(Oc3ccccc3CNC(=O)Nc3cc(C(C)(C)C)nn3-c3ccc(O)c(Cl)c3)ccc12 [Compound 30, ethyl {[(7-{2-[({[3-tert-butyl-1-(3-chloro-4-hydroxyphenyl)-1H-pyrazol-5-yl]carbamoyl}amino)methyl]phenoxy}imidazo[2,1-b][1,3]benzothiazol-2-yl)methyl]sulfanyl}acetate] |
| – | 80 to 100% | COCc1c(C)nc2sc3cc(Oc4ccccc4CNC(=O)Nc4cc(C(C)(C)C)nn4-c4ccc(O)c(Cl)c4)ccc3n12 [Compound 37, 1-[3-tert-butyl-1-(3-chloro-4-hydroxyphenyl)-1H-pyrazol-5-yl]-3-(2-{[3-(methoxymethyl)-2-methylimidazo[2,1-b][1,3]benzothiazol-7-yl]oxy}benzyl)urea] |
| – | 80 to 100% | Cc1nc2sc3cc(Oc4ccccc4CNC(=O)Nc4cc(C(C)(C)C)nn4-c4ccc(O)c(Cl)c4)ccc3n2c1CN1CCOCC1 [Compound 40, 1-[3-tert-butyl-1-(3-chloro-4-hydroxyphenyl)-1H-pyrazol-5-yl]-3-(2-{[2-methyl-3-(morpholin-4-ylmethyl)imidazo[2,1-b][1,3]benzothiazol-7-yl]oxy}benzyl)urea] |
| – | ≤ 20% | CCOC(=O)c1cnc2sc3cc(Oc4ccccc4CNC(=O)NC(CO)c4ccccc4)ccc3n12 (stereo not drawn) [Compound 42, ethyl 7-[2-({[(2-hydroxy-1-phenylethyl)carbamoyl]amino}methyl)phenoxy]imidazo[2,1-b][1,3]benzothiazole-3-carboxylate] |
| – | 40 to 60% | CCOC(=O)c1cnc2sc3cc(Oc4ccccc4CNC(=O)Nc4ccc(OC)c(Cl)c4)ccc3n12 [Compound 44, ethyl 7-[2-({[(3-chloro-4-methoxyphenyl)carbamoyl]amino}methyl)phenoxy]imidazo[2,1-b][1,3]benzothiazole-3-carboxylate] |
| – | ≤ 20% | CCOC(=O)c1cnc2sc3cc(Oc4ccccc4CNC(=O)Nc4cc(OC)cc(OC)c4)ccc3n12 [Compound 45, ethyl 7-[2-({[(3,5-dimethoxyphenyl)carbamoyl]amino}methyl)phenoxy]imidazo[2,1-b][1,3]benzothiazole-3-carboxylate] |
| – | 60 to 80% | COCc1c(C)nc2sc3cc(Oc4ccccc4CNC(=O)Nc4ccc(OC)c(Cl)c4)ccc3n12 [Compound 48, 1-(3-chloro-4-methoxyphenyl)-3-(2-{[3-(methoxymethyl)-2-methylimidazo[2,1-b][1,3]benzothiazol-7-yl]oxy}benzyl)urea] |
| – | 80 to 100% | COCc1c(C)nc2sc3cc(Oc4ccccc4CNC(=O)Nc4ccc(Cl)c(C(F)(F)F)c4)ccc3n12 [Compound 49, 1-[4-chloro-3-(trifluoromethyl)phenyl]-3-(2-{[3-(methoxymethyl)-2-methylimidazo[2,1-b][1,3]benzothiazol-7-yl]oxy}benzyl)urea] |
| – | 80 to 100% | COCc1c(C)nc2sc3cc(Oc4ccccc4CNC(=O)Nc4cc(C(C)(C)C)no4)ccc3n12 [Compound 50, 1-(3-tert-butyl-1,2-oxazol-5-yl)-3-(2-{[3-(methoxymethyl)-2-methylimidazo[2,1-b][1,3]benzothiazol-7-yl]oxy}benzyl)urea] |
| – | 60 to 80% | CC(C)(C)c1cc(NC(=O)NCc2ccccc2Oc2ccc3c(c2)sc2ncc(COCC4CC4)n23)n(-c2ccc(O)c(Cl)c2)n1 [Compound 56, 1-[3-tert-butyl-1-(3-chloro-4-hydroxyphenyl)-1H-pyrazol-5-yl]-3-[2-({3-[(cyclopropylmethoxy)methyl]imidazo[2,1-b][1,3]benzothiazol-7-yl}oxy)benzyl]urea] |
| – | 60 to 80% | Cc1cnc(-c2cnc3sc4cc(Oc5ccccc5CNC(=O)Nc5cc(C(C)(C)C)nn5-c5ccc(O)c(Cl)c5)ccc4n23)o1 [Compound 64, 1-[3-tert-butyl-1-(3-chloro-4-hydroxyphenyl)-1H-pyrazol-5-yl]-3-(2-{[3-(5-methyl-1,3-oxazol-2-yl)imidazo[2,1-b][1,3]benzothiazol-7-yl]oxy}benzyl)urea] |
| – | 60 to 80% | CCOC(=O)c1cnc2sc3cc(Oc4ccccc4CNC(=O)Nc4cc(C(C)(C)C)nn4-c4ccccc4)ccc3n12 [Compound 67, ethyl 7-[2-({[(3-tert-butyl-1-phenyl-1H-pyrazol-5-yl)carbamoyl]amino}methyl)phenoxy]imidazo[2,1-b][1,3]benzothiazole-3-carboxylate] |
